Broadly, the IC50 is the point on the concentration scale where inhibition reaches its midpoint. Low values mean higher potency, high ones lower potency.

For one data set, the system named is CCRF-CEM/Taxol. Put plainly: In vitro cytotoxicity, XTT assay, taxol resistant subline. The class given is cell-based, human. The conditions noted are these: for IC50: Homo sapiens, CCRF-CEM, XTT assay, 72-hr incubation; for fold of cross-resistant, CCRF-CEM/Taxol vs IC50 of the parent cell line: numbers in brackets. The procedure, abridged:
(§1)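 Cells in RPMI 1640 with 5% FBS, 37 °C, 5% CO2; 72-hr drug exposure. Monolayer lines read by sulforhodamine B, suspension CCRF-CEM and resistant sublines by XTT. IC50 (50% growth inhibition) from 6–7 concentrations in duplicate via median-effect analysis.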

The next data set has as its system CCRF-CEM/VBL. The experiment in a line: In vitro cytotoxicity, XTT assay, vinblastine resistant subline. The following applies: for IC50: Homo sapiens, CCRF-CEM, XTT assay, 72-hr incubation; for fold of cross-resistant, CCRF-CEM/VBL vs IC50 of the parent cell line: numbers in brackets. It is filed as cell-based, human. The gist of the method:
as §1
(Tetrazolium assays rely on reduction of a dye to a coloured formazan, in cell work by metabolically active cells.)

In data set [1] the test system is ovarian adenocarcinoma SK-OV-3 xenograft. Put plainly: Therapeutic effect in nude mice bearing SK-OV-3 xenograft. The class given is in vivo. The conditions noted are these: intravenous injection, on day 22. On the procedure:
FIGS. 4A-B illustrates the therapeutic effects of DA-1090, 1099, 1107 in nude mice bearing ovarian adenocarcinoma SK-OV-3 xenograft (i.v. inj., n=3), average tumor size changes (FIG. 4A) and average body weight changes (FIG. 4B).
(§2) Athymic nude mice bearing the nu/nu gene were obtained from NCI, Frederick, Md. and used for all human tumor xenografts. Male nude mice, 6 weeks or older, weighing 20-24 g or more were used. Compounds were administered via the tail vein for i.v. injection or infusion as described previously (Chou T-C et al., Proc. Natl. Acad. Sci. USA 2001, 98, 8113-8118). Various formulations were prepared for injections into the mice for chemotherapeutic studies. As an example, a drug was dissolved in DSMO to make a 25 mg/ml fresh solution, 0.4 ml of this solution was mixed with 0.3 ml of Tween 80, plus 1.3 ml to make 2 ml of 5 mg/ml solution. Bolus injection volume was 0.1-0.2 ml per mouse.
(§3) The therapeutic effects of N-mustard DA-1099 against human prostate adenocarcinoma PC-3 s.c. xenograft in nude mice is shown in FIGS. 3, 3A and 3B. xenograft (i.v. inj., n=3), average tumor size changes (FIG. 3A) and average body weight changes (FIG. 3B). […] Under optimal therapeutic conditions, intravenous injection, of DA-1090, 1099, and 1107, 20 (QD×4), 50 (QD×3), and 20 (QD×4) mg/kg, respectively, yielded 53%, 78%, and 71% tumor suppression, respectively, on day 22.

In data set [2] the test system is Human colon carcinoma HCT-116 cells. The experiment in a line: In vitro cytotoxicity, sulforhodamine B (SRB) assay. It is filed as cell-based. The following applies: Homo sapiens, HCT-116, 72-hr incubation. The procedure, abridged: as §1
Background: In SRB staining, fixed cells bind dye roughly in proportion to their protein.

The test system of data set [3] is Human mammary carcinoma (MX-1) tumor cells. The description is as above. It is filed as cell-based. The conditions noted are these: Homo sapiens, 72-hr incubation. The gist of the method:
as §1

In data set [4] the test system is human mammary carcinoma MX-1 xenograft. Put plainly: Therapeutic effect in nude mice bearing MX-1 xenograft. The class given is in vivo. The conditions noted are these: intravenous injection. On the procedure:
FIGS. 2A-B illustrates the therapeutic effect of DA-1090, 1099, 1124, 1012 and 1107 in nude mice bearing human mammary carcinoma MX-1 xenograft (i.v. inj, n=3-4), average tumor size changes (FIG. 2A) and average body weight changes (FIG. 2B).
as §2
Athymic nude mice bearing the nu/nu gene were used for human breast tumor MX-1 xenograft (FIGS. 2, 2A and 2B). Nude mice were obtained from National Cancer Institute, Frederick, Md. Male mice, 6 weeks old or older, weighing 22 g or more were used for experiments with subcutaneous tumor inoculation as described previously (Chou T-C, Pharmacol. Rev. 2006, 58, 621-681). Drug was administrated via the tail vein by iv injection. Tumor volumes were assessed by measuring length×width×height (or width) by using caliper. An example of vehicle used was 20 μL DMSO in 180 μL saline. All animal studies were conducted in accordance with the guidelines of the U.S. National Institutes of Health Guide for the Care and Use of Animals and the protocol approved by the Institutional Animal Care and Use Committee.

In data set [5] the test system is CCRF-CEM human lymphoblastic leukemia cells. Put plainly: In vitro cytotoxicity, XTT assay, 72-hr incubation. It is filed as cell-based. The following applies: Homo sapiens, CCRF-CEM. The procedure, abridged:
as §1

The subject of data set [6] is human prostate adenocarcinoma PC-3 xenograft. Put plainly: Therapeutic effect in nude mice bearing PC-3 xenograft. The class given is in vivo. The following applies: 50 mg/kg, QD×4, i.v. inj. As for the experimental part: FIGS. 3A-B illustrates the therapeutic effect of DA-1099 in nude mice bearing human prostate adenocarcinoma PC-3 xenograft (i.v. inj., n=3), average tumor size changes (FIG. 3A) and average body weight changes (FIG. 3B).
as §2, §3

Setting [7] is: 18 mg/kg, every other two days (Q2D), two times.
Setting [8] is: 30 mg/kg, every other two days (Q2D), two times.

For the compound `Cc1c(CO)c(CO)c2n1-c1ccccc1C2` [DA-1090, (2-Hydroxymethyl-3-methyl-8H-3a-aza-cyclopenta[a]inden-1-yl)methanol], the IC50 in the data set on CCRF-CEM/Taxol was 66.3 nM; in the data set with CCRF-CEM/VBL it was 29.7 nM; in data set [2], 332 nM; in data set [3], 357 nM; in data set [5], 76 nM. Also, the “fold of cross-resistant, CCRF-CEM/Taxol vs IC50 of the parent cell line” value (“fold of cross-resistant, CCRF-CEM/Taxol” for short) in the data set with CCRF-CEM/Taxol was “[0.87x]”. The “fold of cross-resistant, CCRF-CEM/VBL vs IC50 of the parent cell line” value (“fold of cross-resistant, CCRF-CEM/VBL” below) in the data set on CCRF-CEM/VBL is “[0.39x]^c”. In data set [1] (20 mg/kg (QD×4)), the tumor suppression stood at 53%. For the same compound, the “antitumor therapeutic effect (tumor size)” value (“antitumor therapeutic effect” for short) in data set [4] (setting [7]) is reported as “tumor total disappearance”. For the same compound, the toxicity entry in data set [4] (setting [7]) is on record as “low toxicity”.

Consider `CCc1c(CO)c(CO)c2n1-c1ccccc1C2` [DA-1099, (3-Ethyl-2-hydroxymethyl-8H-3a-azacyclopenta[a]inden-1-yl)methanol], for which the IC50 in the data set with CCRF-CEM/Taxol is 229 nM; in the data set with CCRF-CEM/VBL, 133 nM; in data set [2], 825 nM; in data set [3], 1080 nM; in data set [5], 356 nM. The “fold of cross-resistant, CCRF-CEM/Taxol” value with CCRF-CEM/Taxol was “[0.64x]”. In the data set on CCRF-CEM/VBL, the “fold of cross-resistant, CCRF-CEM/VBL” value is “[0.37x]”. For the same compound, the tumor-growth suppression result in data set [6] is “complete tumor-growth suppression”. The same compound gave a tumor suppression in data set [1] (50 mg/kg (QD×3)) of 78%. For the same compound, the “antitumor therapeutic effect” value in data set [4] (18 mg/kg, daily (QD) 3 times) is given as “tumor total disappearance”. In addition, the toxicity result in data set [4] (18 mg/kg, daily (QD) 3 times) is on record as “low toxicity”.

As to `Cc1c(CO)c(CO)c2n1Cc1ccccc1C2` [DA-1107, (2-Hydroxymethyl-3-methyl-5,10-dihydropyrrolo[1,2-b]isoquinolin-1-yl)methanol], the concentration for half-maximal inhibition (IC50) is 98 nM in the data set on CCRF-CEM/Taxol; 93 nM in the data set with CCRF-CEM/VBL; 281 nM in data set [2]; 616 nM in data set [3]; 81 nM in data set [5]. The “fold of cross-resistant, CCRF-CEM/Taxol” value in the data set on CCRF-CEM/Taxol was “[1.21x]”. The “fold of cross-resistant, CCRF-CEM/VBL” value in the data set with CCRF-CEM/VBL was “[1.15x]”. The compound further registered a tumor suppression in data set [1] (20 mg/kg (QD×4)) of 71%. In data set [4] (setting [8]), the “antitumor therapeutic effect” value is reported as “tumor total disappearance”. Besides, the toxicity result in data set [4] (setting [8]) is given as “low toxicity”.

Source of the values: patent US8410130B2, “Synthesis of 8H-3A-aza-cyclopenta [A ]indenes and 5,10-dihydropyrrolo[1,2-B]isoquinolines derivatives and their use as antitumor therapeutic agents” (Academia Sinica, priority 2007, dated 2013).
